Reference: US5994336A, “Method of inhibiting proliferation of cells by administering an aminosterol compound” (priority 1995, dated 1999)

Assays:
vitelline capillaries = experiment: Chick embryo vitelline capillary regression assay; type: in vivo; set-up: key to vascular reactivity: +: Vascular reactivity; 0: No vascular reactivity; +/-: Equivocal reactivity; conditions: for vascular reactivity: 60 minutes
Experimental: Using the chick embryo vitelline capillaries assay, compounds were tested for their ability to induce capillary regression. Each compound was applied in 0.1 ml of 15% Ficol 400 and PBS onto the embryo, and vascular regression was assessed after 60 minutes.
The 3-day chick embryo consists of an embryonic disc from which numerous vessels emerge and return, forming a "FIG. 8"-shaped structure--the embryo in the center with vascular loops extending outward over both poles. […] Following a lag period of around 15 minutes, the constriction of continuity between capillary and secondary vessels, generally on the "venous" side, was observed. Continued pulsatile blood flow progressed, resulting in a "swelling" of the blind tube, followed by a pinching off of the remaining connection and formation of an enclosed vascular sac resembling a "blood island." This process progressed until only the largest vessels remained intact.

B16 = experiment: Cytostatic activity against B16 in culture; type: cell-based, murine; conditions: except at very high concentrations
[1] = tested on: VX2 carcinoma-induced corneal neovascularization; experiment: Suppression of tumor-induced corneal neovascularization in rabbits; type: in vivo, rabbit; conditions: ELVAX 40 P pellet, day 21
Description: The implantation of VX2 carcinoma into the rabbit cornea results in the induction of new blood vessels within several days (Tamargo et al., Cancer Research 51, 1991, 672-675). It is believed that this carcinoma secretes growth factors that stimulate new blood-vessel growth. Thus, this model is indicative in vivo evidence of therapeutic utility in the treatment of pathological disorders of vascularization, including the metastatic spread of tumors, diabetic retinopathy, macular degeneration, and rheumatoid arthritis.
This experiment followed the published protocol--tumor was implanted adjacent to a polymer containing a concentration of the agent to be evaluated. The polymer releases the agent slowly in the immediate neighborhood of the tumor, providing sustained high local concentrations of the agent. In this experiment, squalamine introduced into a pellet of ELVAX 40 P (DuPont, Wilmington, Del.) inhibited new blood vessel formation by about 60% at days 7 and 14, and by about 25% at day 21.

[2] = tested on: PHA-stimulated human lymphocytes; experiment: Inhibition of mitogen (PHA)-stimulated growth of human T-cells; type: cell-based
Description: Results are tabulated below.

human NHE1 = experiment: NHE1 inhibition, internal pH (BCECF-AM) in transfected PS120 fibroblasts; type: cell-based; conditions: 5 μg/ml; FIG. 2B
Experimental: (§1) PS120 fibroblasts transfected with rabbit or human NHE1 were grown as described above.

rabbit NHE1 = experiment: as above; type: cell-based; conditions: 5 μg/ml; FIG. 2A
Experimental: as §1

rabbit NHE3 = biological target: T1, rabbit NHE3 (Oryctolagus cuniculus, UniProt P26432); type: cell-based
T1 construct: BCECF internal pH recovery
T1 sequence (P26432 30-832): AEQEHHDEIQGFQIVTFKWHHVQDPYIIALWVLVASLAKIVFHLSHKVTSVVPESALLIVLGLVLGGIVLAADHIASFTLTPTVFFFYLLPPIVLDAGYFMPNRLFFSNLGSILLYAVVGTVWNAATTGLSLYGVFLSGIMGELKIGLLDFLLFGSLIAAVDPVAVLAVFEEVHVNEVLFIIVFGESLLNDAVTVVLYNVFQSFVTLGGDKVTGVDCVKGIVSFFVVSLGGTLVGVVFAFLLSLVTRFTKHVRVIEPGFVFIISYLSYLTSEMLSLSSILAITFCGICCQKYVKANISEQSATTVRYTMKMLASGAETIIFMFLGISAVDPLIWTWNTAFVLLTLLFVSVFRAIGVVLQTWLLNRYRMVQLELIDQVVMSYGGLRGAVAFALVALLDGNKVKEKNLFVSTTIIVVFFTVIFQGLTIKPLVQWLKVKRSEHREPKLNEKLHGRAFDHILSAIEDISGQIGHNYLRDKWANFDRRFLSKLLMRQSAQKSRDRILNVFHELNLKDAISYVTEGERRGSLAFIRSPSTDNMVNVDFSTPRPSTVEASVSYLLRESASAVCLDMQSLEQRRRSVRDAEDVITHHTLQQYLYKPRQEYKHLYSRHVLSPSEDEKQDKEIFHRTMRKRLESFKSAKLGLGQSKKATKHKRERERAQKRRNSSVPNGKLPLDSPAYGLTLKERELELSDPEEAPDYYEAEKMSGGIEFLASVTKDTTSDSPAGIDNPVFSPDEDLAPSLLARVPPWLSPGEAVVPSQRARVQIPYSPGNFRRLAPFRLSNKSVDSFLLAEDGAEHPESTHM

B16 melanoma [3] = experiment: Synergistic inhibition of tumor growth, B16 melanoma model; type: in vivo, mouse; conditions: squalamine alone
Experimental: Based on the idea that tumor growth involves both the clonal expansion of a malignant cell along with the development of a supporting vascular supply, a combination of compound 1436 with squalamine was tested to determine whether it would achieve a synergistic effect on solid tumor growth. This concept was evaluated in the B16 melanoma model.
Animals were implanted with B16 melanoma followed by treatment with compound 1436 or 1256 administered in a combined schedule or separately. […] Thus, a combination of these two compounds achieves a therapeutic benefit in tumors dependent on neovascularization that may prevent metastatic spread.

[4] = tested on: human coronary artery smooth muscle; experiment: Proliferation of human coronary artery smooth muscle in vitro; type: cell-based; conditions: FIG. 15
Description: Aminosterols of the invention may also have utility in inhibiting the growth factor mediated proliferation of smooth muscle within the artery. Following coronary angioplasty, reocclusion commonly occurs, secondary to reparative proliferation of the vascular smooth muscle within the wall of the surgically manipulated blood vessel. This process generally takes place over the course of 7-10 days. To evaluate whether an agent could prevent the growth factor mediated proliferation of smooth muscle within the artery, compound 1436 was evaluated in vitro for its effect on the proliferation of human coronary artery smooth muscle. Results for compound 1436 are shown in FIG. 13, and those for squalamine are shown in FIG. 14, with FIG. 15 being a composite logarithmic plot.

B16 melanoma [5] = experiment: Suppression of growth of B16 melanoma in C57B mice; type: in vivo, mouse
Experimental: The growth of B16 melanoma in C57B mice is dependent upon neovascularization.
Using the growth of B16 melanoma cells in C57B mice, a recognized model for the evaluation of inhibitors of angiogenesis on the growth of cancers, the effects of subcutaneous, intraperitoneal and oral administration of squalamine were evaluated.

[6] = tested on: bacteria, fungi and protozoa; conditions: cited from earlier work
[7] = tested on: human umbilical venous endothelial cells; experiment: LPS-induced neutrophil adherence; type: cell-based; conditions: squalamine 10 μg, 1.0 μg or 0.1 μg
Description: Methods 109, 1988, 175-184.

[8] = tested on: human epithelial cell line MCF 10A; experiment: Growth inhibition in vitro (absorbance at 600 nm); type: cell-based; conditions: 10 μg/ml; FIG. 3B
[9] = tested on: capillaries of the chorioallantoic membrane; experiment: Inhibition of capillary growth in chorioallantoic membrane (CAM) model; type: in vivo, chick
Description: The growing capillaries within the chorioallantoic membrane model (CAM model) have been used as a system in which to evaluate the effect of agents on their potential to inhibit new vessel growth. Neovascularization occurs most aggressively over the first week of embryonic development. Thereafter capillary growth is characterized by principally "elongation" rather than "de novo" formation.
In the standard assay, agents are applied locally to a region of the embryo over which neovascularization will occur. Agents are assessed by their ability to inhibit this process, as evaluated by visual examination about 7 days after application. […] The assay utilized is described in detail in Auerbach et al., Pharm. Ther. 51, 1991, 1-11.

human melanoma 1205Lu = experiment: Suppression of growth of human melanoma in RAG-1 mice; type: in vivo
Description: As apparent from FIG. 5, melanoma 1205Lu develops aggressively in RAG-1 mice after implantation.

[10] = tested on: bovine pulmonary endothelial cells; experiment: Growth inhibition in vitro (absorbance at 600 nm); type: cell-based; conditions: 1 μg/ml; FIG. 3A

CC(C)[C@@H](CC[C@@H](C)[C@H]1CC[C@H]2[C@@H]3[C@H](O)C[C@H]4C[C@@H](NCCCNCCCCN)CC[C@]4(C)[C@H]3CC[C@]12C)OS(=O)(=O)O [squalamine]
activity on vitelline capillaries (vitelline capillaries): especially active | vascular reactivity (vitelline capillaries; 0.001 μg applied): 0 | vascular reactivity (vitelline capillaries; 0.01 μg applied): + | vascular reactivity (vitelline capillaries; 0.1 μg applied): + | vascular reactivity (vitelline capillaries; 1 μg applied): + | vascular reactivity (vitelline capillaries; 10 μg applied): + | disruption of vitelline capillaries (vitelline capillaries; 3- to 5-day chick embryos): found to disrupt vitelline capillaries | lag period before capillary constriction (vitelline capillaries; 3-day chick embryo): around 15 minutes | hemolysis (vitelline capillaries; chick embryo, microscopic observation): absence of hemolysis | cytostatic activity against B16 in culture (B16): minimal cytostatic activity | inhibition of new blood vessel formation [1]: about 25% | inhibition of blast transformation [2]: Some effect | inhibitory activity against human NHE1 (human NHE1): no inhibitory activity | inhibitory activity against rabbit NHE1 (rabbit NHE1): no inhibitory activity | resting internal pH (rabbit NHE3; 5 μg/ml, cells not acid-preloaded, FIG. 1B): the resting pH of these cells was also inhibited | inhibition of NHE3, effect on Km and Vmax (rabbit NHE3; squalamine 5 μg/ml, FIGS. 1A, 1B): inhibited NHE3 with respect to proton concentration at both Km and Vmax levels | inactivation of exchanger compared with amiloride (rabbit NHE3; words): more profoundly inactivated by squalamine than by amiloride | specificity NHE3 over NHE1 (rabbit NHE3; words): specificity for NHE3 over NHE1 | impact on tumor volume (B16 melanoma [3]; 5 mg/kg/day, FIG. 12): no significant impact on tumor volume | effect compared with combination (B16 melanoma [3]; 15 mg/kg/day): Neither administration of squalamine at 15 mg/kg/day nor compound 1436 alone in a tolerable schedule could achieve this effect | suppression of growth in vitro [4]: suppress in vitro the growth of human coronary artery smooth muscle | body weight and hematologic parameters (B16 melanoma [5]; B16-bearing mice): no significant depression | suppression of tumor volume (B16 melanoma [5]; intraperitoneal, FIGS. 4B, 4B-1): dose-dependent suppression of tumor volume | suppression of tumor volume (B16 melanoma [5]; oral, FIGS. 4C, 4C-1): dose-dependent suppression of tumor volume | suppression of tumor volume (B16 melanoma [5]; subcutaneous, FIGS. 4A, 4A-1): dose-dependent suppression of tumor volume | antibiotic spectrum [6]: broad-spectrum antibiotic, killing bacteria, fungi and protozoa | inhibition of neutrophil adherence [7]: no inhibition | growth of epithelial line [8]: no effect | inhibition of CAM vessel neovascularization ([9]; 3-day CAM, 0.65 μg): inhibition of CAM vessel neovascularization | vascular irritation ([9]; 3-day embryo, 20 and 40 μg (values marked *)): Some vascular irritation noted | Percentage positive (positive/total) ([9]; 13-day embryo, 5.0 μg applied): 0/26 | inhibition of CAM capillary growth ([9]; 13-day old chick, ten times 0.65 μg): no inhibitory effect | suppression of tumor growth (human melanoma 1205Lu; 10, 20, 40 mg/kg/d, FIG. 5): clear suppression of tumor growth in a dose-dependent fashion | reversibility after cessation of treatment (human melanoma 1205Lu; words): reversible | growth of bovine pulmonary endothelial cells [10]: inhibited the growth
